Experimental data reported in patent EP4603105A1, “PHARMACEUTICAL COMPOSITION CONTAINING CYCLIC COMPOUND HAVING SELECTIVE KRAS INHIBITORY EFFECT AGAINST HRAS AND NRAS” (CHUGAI SEIYAKU KABUSHIKI KAISHA, priority 2022, dated 2024).
*1 amine or outer side, *2 acyl side, *3 side chain or, on linkers, in order; H or OH if unused. Where a SMILES comes first, the peptide text is derived from it. Bridges are numbered along the chain shown (N, C = ends). [ ]: non-standard residue; d: D form. The star is where a group is joined. hPhe(3,5-F2-4-CF3) = N[C@@H](CCc1cc(F)c(C(F)(F)F)c(F)c1)C(=O)O; NPrPhe(4-CF3) = CCCN[C@@H](Cc1ccc(C(F)(F)F)cc1)C(=O)O; NMeGly(cPent) = CN[C@H](C(=O)O)C1CCCC1; X7 = C[C@@](N[*:1])(C(=O)[*:2])C1CC1; Nva(3-Et) = CCC(CC)[C@H](N)C(=O)O; X3 = CCC[C@](C)(N[*:1])C(=O)[*:2]; αMeF = C[C@](N)(Cc1ccccc1)C(=O)O; NMeD = CN[C@@H](CC(=O)O)C(=O)O; NMeL = CN[C@@H](CC(C)C)C(=O)O; αMeL = CC(C)C[C@](C)(N)C(=O)O; αMeV = CC(C)[C@](C)(N)C(=O)O; αMeS = C[C@](N)(CO)C(=O)O; Morpholide = C1CN(*)CCO1; Ac5c = NC1(C(=O)O)CCCC1; Aze = O=C(O)[C@@H]1CCN1; Sar = CNCC(=O)O; Allyl = C=CC*

What was measured:
[1] = target: GDP-bound KRAS wild-type protein (Homo sapiens, UniProt P01116); assay: Binding to KRAS by surface plasmon resonance (SPR), dissociation constant KD; details: Single Cycle Kinetics
Procedure, shortened: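 Biotinylated GDP-bound RAS was captured at about 100–300 RU. Running buffer: HBS pH 7.4, 10 mM MgCl2, 10 µM GDP, 1 mM DTT, 0.01% Tween 20, 4% DMSO.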

[2] = target: GDP-bound NRAS wild-type protein (Homo sapiens, UniProt P01111); assay: Binding to NRAS by surface plasmon resonance (SPR), KD and KD ratio to KRAS; details: ratio of KD for GDP-bound NRAS wild-type protein to KD for KRAS
Procedure, shortened: (§1)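 Compound binding is evaluated by SPR single-cycle kinetics, with concentrations added intermittently from low to high for 75 s each. Target surfaces carry GDP-loaded biotinylated Avi-RAS at about 100–300 RU, regenerated after each cycle; temperature 30°C. A 1:1 binding model gives KD.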

HRAS wild-type protein = HRAS wild-type protein (Homo sapiens, UniProt P01112); assay: Binding to HRAS by surface plasmon resonance (SPR), KD and KD ratio to KRAS; details: ratio of KD for HRAS wild-type protein to KD for KRAS
Procedure, shortened: as §1

[3] = system: human lung cancer strain NCI-H441; assay type: cell-based
Procedure, shortened: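 Proliferation was scored by […] measured after the reagent was added to cultures kept at 37°C in 5% carbon dioxide.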

Sequence of GDP-bound KRAS wild-type protein (P01116 1-188 isoform P01116-2): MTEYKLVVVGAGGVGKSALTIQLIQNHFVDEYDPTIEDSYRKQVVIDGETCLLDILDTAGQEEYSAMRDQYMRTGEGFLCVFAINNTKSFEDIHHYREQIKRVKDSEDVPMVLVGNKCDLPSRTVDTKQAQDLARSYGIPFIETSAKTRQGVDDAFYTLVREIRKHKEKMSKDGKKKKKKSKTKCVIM
Sequence of GDP-bound NRAS wild-type protein (P01111 whole entry): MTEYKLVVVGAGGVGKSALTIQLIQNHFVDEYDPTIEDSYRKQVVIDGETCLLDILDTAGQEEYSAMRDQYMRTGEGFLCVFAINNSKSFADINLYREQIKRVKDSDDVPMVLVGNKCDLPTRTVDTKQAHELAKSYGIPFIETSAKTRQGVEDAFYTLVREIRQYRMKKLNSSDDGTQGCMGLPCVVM
Sequence of HRAS wild-type protein (P01112 whole entry): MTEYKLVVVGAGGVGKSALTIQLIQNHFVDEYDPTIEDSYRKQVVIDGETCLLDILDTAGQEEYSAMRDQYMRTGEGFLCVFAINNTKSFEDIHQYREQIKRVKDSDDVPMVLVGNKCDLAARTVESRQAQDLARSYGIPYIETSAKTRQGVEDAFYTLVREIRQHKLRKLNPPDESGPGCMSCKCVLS

Structure (SMILES) | Kd [1] [nM] | NRAS /KRAS [2] | HRAS /KRAS (HRAS wild-type protein) | IC50 [3] [nM]
C=CCOC[C@]1(C)NC(=O)[C@@H]2CCCN2C(=O)[C@H](CCc2cc(F)c(C(F)(F)F)c(F)c2)NC(=O)CN(C)C(=O)[C@H](Cc2ccc(C(F)(F)F)cc2)N(CCC)C(=O)CN(C)C(=O)CN(C)C(=O)[C@H]([C@@H](C)CC)NC(=O)[C@H](CC(C)C)N(C)C(=O)C[C@@H](C(=O)N2CCOCC2)N(C)C(=O)[C@H](C2CCCC2)N(C)C1=O [PP0763] ([NMeL]I[Sar][Sar][NPrPhe(4-CF3)][Sar][hPhe(3,5-F2-4-CF3)]P[αMeS](Allyl)[NMeGly(cPent)][NMeD]-Morpholide; lactam N-11) | 0.98 | B (a compound having 3 or more and less than 10 is denoted as B) | B (a compound having 3 or more and less than 10 is denoted as B) | 83
CCCN1C(=O)CN(C)C(=O)[C@@H]2CCN2C(=O)[C@H]([C@@H](C)CC)NC(=O)[C@H](CC(C)C)N(C)C(=O)C[C@@H](C(=O)N2CCOCC2)N(C)C(=O)[C@H](C2CCCC2)N(C)C(=O)[C@](C)(C2CC2)NC(=O)[C@@H]2CCCN2C(=O)[C@H](CCc2cc(F)c(C(F)(F)F)c(F)c2)NC(=O)CN(C)C(=O)[C@@H]1Cc1ccc(C(F)(F)F)cc1 [PP0772] ([NMeL]I[Aze][Sar][NPrPhe(4-CF3)][Sar][hPhe(3,5-F2-4-CF3)]P[X7][NMeGly(cPent)][NMeD]-Morpholide; lactam N-11) | 4.3 | B (a compound having 3 or more and less than 10 is denoted as B) | B (a compound having 3 or more and less than 10 is denoted as B) | 434
CCCN1C(=O)CN(C)C(=O)[C@@H]2CCN2C(=O)[C@H]([C@@H](C)CC)NC(=O)[C@H](CC(C)C)N(C)C(=O)C[C@@H](C(=O)N2CCOCC2)N(C)C(=O)[C@H](C2CCCC2)N(C)C(=O)[C@](C)(C(C)C)NC(=O)[C@@H]2CCCN2C(=O)[C@H](CCc2cc(F)c(C(F)(F)F)c(F)c2)NC(=O)CN(C)C(=O)[C@@H]1Cc1ccc(C(F)(F)F)cc1 [PP0773] ([NMeL]I[Aze][Sar][NPrPhe(4-CF3)][Sar][hPhe(3,5-F2-4-CF3)]P[αMeV][NMeGly(cPent)][NMeD]-Morpholide; lactam N-11) | 4 | B (a compound having 3 or more and less than 10 is denoted as B) | B (a compound having 3 or more and less than 10 is denoted as B) | 170
CCCN1C(=O)CN(C)C(=O)[C@@H]2CCN2C(=O)[C@H]([C@@H](C)CC)NC(=O)[C@H](CC(C)C)N(C)C(=O)C[C@@H](C(=O)N2CCOCC2)N(C)C(=O)[C@H](C2CCCC2)N(C)C(=O)[C@](C)(CCC)NC(=O)[C@@H]2CCCN2C(=O)[C@H](CCc2cc(F)c(C(F)(F)F)c(F)c2)NC(=O)CN(C)C(=O)[C@@H]1Cc1ccc(C(F)(F)F)cc1 [PP0775] ([NMeL]I[Aze][Sar][NPrPhe(4-CF3)][Sar][hPhe(3,5-F2-4-CF3)]P[X3][NMeGly(cPent)][NMeD]-Morpholide; lactam N-11) | 9.2 | B (a compound having 3 or more and less than 10 is denoted as B) | B (a compound having 3 or more and less than 10 is denoted as B) | 417
CCCN1C(=O)CN(C)C(=O)[C@@H]2CCN2C(=O)[C@H]([C@@H](C)CC)NC(=O)[C@H](CC(C)C)N(C)C(=O)C[C@@H](C(=O)N2CCOCC2)N(C)C(=O)[C@H](C2CCCC2)N(C)C(=O)[C@](C)(CC(C)C)NC(=O)[C@@H]2CCCN2C(=O)[C@H](CCc2cc(F)c(C(F)(F)F)c(F)c2)NC(=O)CN(C)C(=O)[C@@H]1Cc1ccc(C(F)(F)F)cc1 [PP0776] ([NMeL]I[Aze][Sar][NPrPhe(4-CF3)][Sar][hPhe(3,5-F2-4-CF3)]P[αMeL][NMeGly(cPent)][NMeD]-Morpholide; lactam N-11) | 15 | B (a compound having 3 or more and less than 10 is denoted as B) | B (a compound having 3 or more and less than 10 is denoted as B) | 591
CCCN1C(=O)CN(C)C(=O)[C@@H]2CCN2C(=O)[C@H]([C@@H](C)CC)NC(=O)[C@H](CC(C)C)N(C)C(=O)C[C@@H](C(=O)N2CCOCC2)N(C)C(=O)[C@H](C2CCCC2)N(C)C(=O)[C@](C)(Cc2ccccc2)NC(=O)[C@@H]2CCCN2C(=O)[C@H](CCc2cc(F)c(C(F)(F)F)c(F)c2)NC(=O)CN(C)C(=O)[C@@H]1Cc1ccc(C(F)(F)F)cc1 [PP0778] ([NMeL]I[Aze][Sar][NPrPhe(4-CF3)][Sar][hPhe(3,5-F2-4-CF3)]P[αMeF][NMeGly(cPent)][NMeD]-Morpholide; lactam N-11) | 10 | B (a compound having 3 or more and less than 10 is denoted as B) | B (a compound having 3 or more and less than 10 is denoted as B) | 546
CCCN1C(=O)CN(C)C(=O)[C@@H]2CCN2C(=O)[C@H]([C@@H](C)CC)NC(=O)[C@H](CC(C)C)N(C)C(=O)C[C@@H](C(=O)N2CCOCC2)N(C)C(=O)[C@H](C2CCCC2)N(C)C(=O)[C@](C)(COC)NC(=O)[C@@H]2CCCN2C(=O)[C@H](CCc2cc(F)c(C(F)(F)F)c(F)c2)NC(=O)CN(C)C(=O)[C@@H]1Cc1ccc(C(F)(F)F)cc1 [PP0779] ([NMeL]I[Aze][Sar][NPrPhe(4-CF3)][Sar][hPhe(3,5-F2-4-CF3)]P[αMeS](Me)[NMeGly(cPent)][NMeD]-Morpholide; lactam N-11) | 5.1 | B (a compound having 3 or more and less than 10 is denoted as B) | B (a compound having 3 or more and less than 10 is denoted as B) | 364
C=CCOC[C@]1(C)NC(=O)[C@@H]2CCCN2C(=O)[C@H](CCc2cc(F)c(C(F)(F)F)c(F)c2)NC(=O)CN(C)C(=O)[C@H](Cc2ccc(C(F)(F)F)cc2)N(CCC)C(=O)CN(C)C(=O)[C@@H]2CCN2C(=O)[C@H]([C@@H](C)CC)NC(=O)[C@H](CC(C)C)N(C)C(=O)C[C@@H](C(=O)N2CCOCC2)N(C)C(=O)[C@H](C2CCCC2)N(C)C1=O [PP0780] ([NMeL]I[Aze][Sar][NPrPhe(4-CF3)][Sar][hPhe(3,5-F2-4-CF3)]P[αMeS](Allyl)[NMeGly(cPent)][NMeD]-Morpholide; lactam N-11) | 7.8 | B (a compound having 3 or more and less than 10 is denoted as B) | B (a compound having 3 or more and less than 10 is denoted as B) | 527
CCCN1C(=O)CN(C)C(=O)[C@@H]2CCN2C(=O)[C@H](C(CC)CC)NC(=O)[C@H](CC(C)C)N(C)C(=O)C[C@@H](C(=O)N2CCOCC2)N(C)C(=O)[C@H](C2CCCC2)N(C)C(=O)C2(CCCC2)NC(=O)[C@@H]2CCCN2C(=O)[C@H](CCc2cc(F)c(C(F)(F)F)c(F)c2)NC(=O)CN(C)C(=O)[C@@H]1Cc1ccc(C(F)(F)F)cc1 [PP0785] ([NMeL][Nva(3-Et)][Aze][Sar][NPrPhe(4-CF3)][Sar][hPhe(3,5-F2-4-CF3)]P[Ac5c][NMeGly(cPent)][NMeD]-Morpholide; lactam N-11) | 3 | B (a compound having 3 or more and less than 10 is denoted as B) | B (a compound having 3 or more and less than 10 is denoted as B) | 324
CCO[C@@H]1C[C@H]2C(=O)NC3(CCC3)C(=O)N(C)[C@@H](C3CCCC3)C(=O)N(C)[C@H](C(=O)N3CCOCC3)CC(=O)N(C)[C@@H](CC(C)C)C(=O)N[C@@H]([C@H](C)CC)C(=O)N(C)CC(=O)N(C)[C@H]3CCCCN(C3=O)[C@@H](Cc3ccc(C(F)(F)F)cc3)C(=O)N(C)CC(=O)N[C@@H](CCc3cc(F)c(C(F)(F)F)c(F)c3)C(=O)N2C1 [PP0806] | 0.19 | B (a compound having 3 or more and less than 10 is denoted as B) | B (a compound having 3 or more and less than 10 is denoted as B) | 16.9
CCO[C@@H]1C[C@H]2C(=O)NC3(CCC3)C(=O)N(C)[C@@H](C3CCCC3)C(=O)N(C)[C@H](C(=O)N3CCOCC3)CC(=O)N(C)[C@@H](CC(C)C)C(=O)N[C@@H]([C@H](C)CC)C(=O)N(C)CC(=O)N(C)[C@H]3CCCCCN(C3=O)[C@@H](Cc3ccc(C(F)(F)F)cc3)C(=O)N(C)CC(=O)N[C@@H](CCc3cc(F)c(C(F)(F)F)c(F)c3)C(=O)N2C1 [PP0815] | 3.9 | B (a compound having 3 or more and less than 10 is denoted as B) | B (a compound having 3 or more and less than 10 is denoted as B) | 345
CCO[C@@H]1C[C@H]2C(=O)NC3(CCC3)C(=O)N(C)[C@@H](C3CCCC3)C(=O)N(C)[C@H](C(=O)N3CCOCC3)CC(=O)N(C)[C@@H](CC(C)C)C(=O)N[C@@H](C3CC(F)(F)C3)C(=O)N(C)CC(=O)N(C)[C@H]3CCCCCN(C3=O)[C@@H](Cc3ccc(C(F)(F)F)cc3)C(=O)N(C)CC(=O)N[C@@H](CCc3cc(F)c(C(F)(F)F)c(F)c3)C(=O)N2C1 [PP0816] | 0.5 | A (a compound having 10 or more and less than 20 is denoted as A) | B (a compound having 3 or more and less than 10 is denoted as B) | 92.5
CC[C@H](C)[C@@H]1NC(=O)[C@H](CC(C)C)N(C)C(=O)C[C@@H](C(=O)N2CCOCC2)N(C)C(=O)[C@H](C2CCCC2)N(C)C(=O)C2(CCC2)NC(=O)[C@]2(C)CCCN2C(=O)[C@H](CCc2cc(F)c(C(F)(F)F)c(F)c2)NC(=O)CN(C)C(=O)[C@H](Cc2ccc(C(F)(F)F)cc2)N2CCCCC[C@@H](C2=O)N(C)C(=O)CN(C)C1=O [PP0817] | 0.36 | A (a compound having 10 or more and less than 20 is denoted as A) | B (a compound having 3 or more and less than 10 is denoted as B) | 112
